Source: the supplement of paper PMC10307832

How the values were obtained:
Selisistat = compound: C1CC(C2=C(C1)C3=C(N2)C=CC(=C3)Cl)C(=O)N [Selisistat]; assay: relative viability (nuclei count vs DMSO), 5 days (fraction); higher = more cells survive
Method in brief: (§1)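 Acceptance criteria were a control CV below 25% and at least one doubling per plate. Lung cancer cell lines in 1536-well plates got five library-drug doses (not always all listed) √10 apart by pinning and were left 5 days with no medium change. Viability divides treated-well nuclei by vehicle-well nuclei and is the median across plates. Nuclei were counted by MetaXpress from 4× Hoechst images.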

Serdemetan = compound: c1ccc2c(CCNc3ccc(Nc4ccncc4)cc3)c[nH]c2c1 [Serdemetan]; assay: as above
Method in brief: as §1

Cell Line | relative viability (Selisistat; 0.4 µM) | relative viability (Selisistat; 1.265 µM) | relative viability (Selisistat; 4 µM) | relative viability (Selisistat; 12.65 µM) | relative viability (Selisistat; 40 µM) | relative viability (Serdemetan; 0.04 µM) | relative viability (Serdemetan; 0.1265 µM) | relative viability (Serdemetan; 0.4 µM) | relative viability (Serdemetan; 1.265 µM) | relative viability (Serdemetan; 4 µM)
LXF-289 | 1.05 | 1.03 | 0.867 | 0.949 | 1.07 | 1.02 | 0.996 | 0.933 | 0.84 | 0.885
NCI-H23 | 0.989 | 0.941 | – | 0.906 | 1.08 | 0.972 | 1.17 | 1.11 | 0.817 | 1.04
NCI-H322M | 0.98 | 1.01 | – | 0.994 | 1.01 | 0.9 | 1 | 0.901 | 0.791 | 0.874
NCI-H358 | 0.989 | 0.925 | – | 1.06 | 0.976 | 0.897 | 0.905 | 0.901 | 0.81 | 0.798
NCI-H441 | 1.22 | 1.11 | 0.774 | 0.955 | 1.01 | 0.981 | 1.06 | 1.06 | 0.815 | 0.78
NCI-H460 | 0.986 | 0.961 | 0.933 | 0.968 | 1.03 | 0.936 | 0.962 | 0.926 | 0.77 | 0.316
NCI-H520 | 0.978 | 0.939 | 0.995 | 0.937 | 0.877 | 0.929 | 0.977 | 0.951 | 0.633 | 0.856
NCI-H522 | 0.899 | 0.964 | 0.763 | 0.806 | 0.885 | 1.03 | 0.938 | 0.943 | 0.605 | 1.09
NCI-H596 | 1.08 | 0.994 | 0.849 | 1.03 | 0.983 | 1.03 | 0.981 | 0.989 | 0.76 | 0.768
NCI-H647 | 0.958 | 0.964 | 0.826 | 0.959 | 1.03 | 0.905 | 0.964 | 0.964 | 0.819 | 0.655
NCI-H650 | 0.948 | 0.868 | 1.08 | 0.886 | 1.06 | 0.896 | 0.889 | 0.934 | 0.878 | 0.764
NCI-H661 | 1.02 | 1 | 1 | 0.901 | 0.906 | 0.974 | 0.977 | 1.01 | 0.815 | 0.94
NCI-H727 | 0.95 | 1 | – | 0.863 | 0.895 | 0.936 | 0.808 | 1.07 | 0.669 | 0.555
NCI-H838 | 1.03 | 0.958 | 0.863 | 0.96 | 0.985 | 0.959 | 0.976 | 0.98 | 0.92 | 1.14
NCI-H1299 | 1.05 | 1.03 | 1.04 | 1.02 | 1.01 | 1.01 | 1 | 0.975 | 0.895 | 0.754
NCI-H1355 | 1.02 | 0.987 | 0.832 | 0.97 | 1.03 | 0.99 | 1.05 | 0.907 | 0.936 | 0.918
NCI-H1395 | 1.02 | 0.883 | 0.701 | 0.863 | 0.9 | 0.869 | 1.02 | 0.927 | 0.804 | 0.61
NCI-H1437 | 0.945 | 0.974 | 0.805 | 0.933 | 0.855 | 0.905 | 0.994 | 0.98 | 0.928 | 0.799
NCI-H1563 | 0.972 | 0.886 | 0.906 | 0.865 | 0.902 | 0.866 | 0.849 | 0.8 | 0.622 | 0.744
NCI-H1623 | 1.08 | 1.08 | 0.843 | 1.09 | 1.18 | 0.969 | 1.02 | 0.961 | 0.815 | 0.713
NCI-H1648 | 0.769 | 0.787 | 1.04 | 1.19 | 1.19 | – | 1.07 | 0.924 | 0.472 | 0.358
NCI-H1650 | 0.823 | 0.844 | 0.829 | 0.905 | 0.911 | 0.916 | 0.892 | 0.788 | 0.759 | 0.688
NCI-H1651 | 0.995 | 0.958 | 0.893 | 0.924 | 0.949 | 0.847 | 0.899 | 0.832 | 0.507 | 0.399
NCI-H1666 | 1.06 | 0.933 | 0.877 | 1.04 | 0.966 | 0.985 | 0.946 | 0.934 | 0.634 | 0.781
NCI-H1703 | 0.894 | 0.834 | 0.9 | 0.853 | 0.848 | 1.08 | 0.84 | 0.882 | 0.764 | 0.71
NCI-H1734 | 1.02 | 0.942 | 0.921 | 1.08 | 1.03 | 0.854 | 0.455 | 0.821 | 0.171 | 0.263

Cell Line | relative viability (Selisistat; 0.4 µM) | relative viability (Selisistat; 1.265 µM) | relative viability (Selisistat; 4 µM) | relative viability (Selisistat; 12.65 µM) | relative viability (Selisistat; 40 µM) | relative viability (Serdemetan; 0.04 µM) | relative viability (Serdemetan; 0.1265 µM) | relative viability (Serdemetan; 0.4 µM) | relative viability (Serdemetan; 1.265 µM) | relative viability (Serdemetan; 4 µM)
NCI-H1755 | 1.08 | 1.1 | 0.977 | 1.01 | 1.08 | 1 | 0.975 | 0.959 | 0.775 | 0.763
NCI-H1792 | 0.927 | 1.18 | – | 0.862 | 0.855 | 0.934 | 0.674 | 0.848 | 0.593 | 0.62
NCI-H1793 | 0.968 | 0.846 | – | 0.956 | 0.942 | 1.03 | 0.873 | 0.562 | 0.471 | 0.572
NCI-H1915 | 0.992 | 1.03 | 0.795 | 0.963 | 1 | 1 | 1.02 | 0.996 | 0.819 | 0.948
NCI-H1944 | 1.11 | 0.92 | – | 0.858 | 0.975 | 0.95 | 0.918 | 0.858 | 0.469 | 0.738
NCI-H1975 | 0.952 | 0.839 | 0.763 | 0.825 | 0.836 | 0.934 | 0.978 | 0.919 | 0.937 | 0.993
NCI-H1993 | 0.911 | 0.898 | – | 1.01 | 1.04 | 0.977 | 0.995 | 0.699 | 0.831 | 0.89
NCI-H2009 | 1.01 | 1.03 | 0.772 | 0.933 | 0.975 | 0.97 | 0.967 | 1 | 0.776 | 0.885
NCI-H2023 | 0.952 | 0.966 | 0.828 | 0.876 | 0.934 | 0.884 | 1.09 | 0.932 | 0.424 | 0.345
NCI-H2085 | 1.11 | 0.991 | 0.858 | 0.965 | 1.05 | 0.964 | 0.968 | 0.897 | 0.844 | 0.744
NCI-H2087 | 1.18 | 1.06 | – | 0.89 | 0.97 | 1.16 | 1.08 | 0.944 | 0.57 | 0.409
NCI-H2126 | 1.08 | 1.05 | 0.833 | 0.999 | 1.02 | 1.02 | 1.05 | 0.96 | 0.948 | 1.02
NCI-H2170 | 1.02 | 0.978 | 0.956 | 1.03 | 1.1 | 1 | 1.02 | 1 | 0.972 | 0.985
NCI-H2228 | 0.9 | 1.12 | 0.966 | 1.05 | 1.11 | 0.974 | 0.98 | 0.945 | 0.342 | 0.336
NCI-H2342 | 1.06 | 0.881 | 0.908 | 0.94 | 0.928 | 1.17 | 1.13 | 1.08 | 0.84 | 0.69
NCI-H2347 | 1.02 | 1.09 | 0.716 | 0.993 | 0.99 | 0.982 | 0.887 | 0.903 | 0.603 | 0.7
NCI-H2405 | 1.06 | 0.88 | 0.657 | 0.984 | 0.992 | 0.99 | 1.01 | 0.984 | 0.921 | 0.859
NCI-H3122 | 1.03 | 1.07 | 0.782 | 1.03 | 1.02 | 0.995 | 0.984 | 0.948 | 0.758 | 1.02
PC-3 [JPC-3] | 1.14 | 1.04 | 0.85 | 1.07 | 0.948 | 1.04 | 0.961 | 0.702 | 0.98 | 1.06
PC-14 | 1.02 | 0.957 | 0.891 | 0.954 | 1.09 | 0.966 | 0.972 | 0.689 | 0.907 | 0.728
RERF-LC-KJ | 1.06 | 0.969 | 0.927 | 0.836 | 0.87 | 0.99 | 0.948 | 0.93 | 0.942 | 0.939
SK-LU-1 | 1.08 | 1.07 | 1.08 | 1.08 | 1.13 | 1.02 | 0.999 | 1.1 | 0.802 | 0.828
SK-MES-1 | 1.09 | 0.986 | 0.955 | 0.93 | 0.976 | 0.959 | 1.01 | 0.971 | 0.831 | 0.741
SW 900 | 1 | 0.801 | 0.656 | 0.846 | 0.858 | 0.876 | 0.941 | 0.926 | 0.547 | 0.666
SW 1573 | 1.12 | 0.89 | 0.896 | 1.03 | 1.05 | 0.904 | 1.11 | 0.966 | 0.48 | 0.343
